The results in this text go back to paper PMC6539231, “4,5-Diaryl 3(2H)Furanones: Anti-Inflammatory Activity and Influence on Cancer Growth” (Molecules, 2019).

For data set [1], the system named is carrageenan mice paw oedema. Briefly: Carrageenin-induced mouse paw edema. In kind it is in vivo, mice (AKR). The note with it: Mus musculus, ip, read-out: CPE, %. The procedure:
From the data of Table 7 it is obvious that anti-inflammatory activity of alkylsulfones and sulfoxides of furan-3(2H)-ones, including annelated derivatives are very similar.
The anti-inflammatory activity of compounds was performed using the carrageenan mice paw oedema assay. Animal of both sex (AKR), with exception of pregnant females were housed under standard conditions, receiving only water during the experimental period. […] The detailed description of the whole experiment reported previously. All the biological experiments were carried out in full compliance with the European Convention for the Protection of Vertebrate Animals used for Experimental or Other Scientific Purposes (ETS NO 123, Strasbourg, 03/18/1986): Strasbourg (France). European Treaty Series, № 123, March 18, 1986. 11 P. The project identification code and date of approval is 350880/3468 of 15-12-2014, University of Thessaloniki.

For data set [2], the system named is MCF-7 cells. Description: Combination (synergy) growth assay in MCF-7 cells, Combination Index. Particulars: MCF-7, 48 h. Format: cell-based, human.
In a further data set the test system is HSC-3 cells. Description: Growth inhibition assay, HSC-3 cells.
Data set [3] deals with MCF-7 cells. Description: Combination (synergy) growth assay in MCF-7 cells, Combination Index. In kind it is cell-based, human. The note with it: MCF-7, 48 h. The procedure: In addition, exposure of the MCF-7 cells to each of the compounds in combination with each one of the two anti-neoplastic drugs was performed in order to study the synergistic effect of the compounds. The results are shown in Table 9 and Figure 5 and Figure 6.
This is another data set of the same source.

The test system of data set [4] is MCF-7 cells. Briefly: Growth inhibition assay, MCF-7 cells. In kind it is cell-based, human. Particulars: Homo sapiens, MCF7, 48 h, 48 h exposure.
Experimental: (§1) The cells were grown in the presence of each of the selected compounds as well as of the two well-known anti-neoplastic drugs gefitinib and 5-fluorouracil.
(§2) Each cell culture was treated appropriately, ensuring that DMSO concentration was kept below ≤ 0.2% (v/v) after every dilution. Cells were seeded in 24-well plates, at an initial density of 5 × 10^4 cells/mL. […] Cells were allowed to grow for additional 48 h before being harvested by trypsinization and subsequently counted (cell density; number of cells/mL) using a hemocytometer (Neubauer counting chamber) and optical microscopy. Cell growth was expressed as a percentage relative to that for the untreated control culture (only cells and medium, CTL).

pIC50: −log10 of the molar value. “Also recorded” adds a separate entry of the source. A value given as a limit tells only on which side of the number the result lay.

Experimental for HSC-3 cells: as §1, §2

As a reminder, the pIC50 is −log10 of the IC50, conventionally taken in molar units. Broadly, the melting point is the temperature, or range, at which the solid turns liquid. `CC1(C)Oc2c(c3ccc(S(C)(=O)=O)cc3c3ccccc23)C1=O` [x-1, 2′,2′-dimethyl-3-(methylsulfonyl)-phenanthro[9,10-b]furan-3′(2′H)-one]: the melting point lay within 222 to 224 °C. In addition, the inhibition in vivo at 0.1 µmol/g in data set [1] came out at 45%. For the same molecule, in the data set on MCF-7 cells [2] (+ 29 μM cel), the “Combination Effect with celecoxib” value is on record as “antagonism”. Besides, in the data set on MCF-7 cells [2] (+ 29 μM cel (21.3 μM 1h, 2.9 μM 1g, 3.8 μM x-1)), the “% Cell Growth, combination with celecoxib” value is 60.6%. The “CI, combination with celecoxib” value in the data set with MCF-7 cells [2] (+ 29 μM cel, CI <1 synergy, >1 antagonism) was more than 1. For the same molecule, in the data set on HSC-3 cells (Compound concentration: 10μΜ), the “HSC-3 % Cell Growth” value came to 91 ± 10%. For the same molecule, the pIC50 in the data set with HSC-3 cells (Homo sapiens, HSC-3, 48 h, read-out: HSC-3 IC50 Values) is 4.22. In the data set on MCF-7 cells [3] (+ 0.3 μM 5-fu), the “Combination Effect with 5-fluorouracil” value is “antagonistic effect; also recorded: antagonism”. Moreover, the “% Cell Growth, combination with 5-fluorouracil” value with MCF-7 cells [3] (+ 0.3 μM 5-fu (21.3 μM 1h, 2.9 μM 1g, 3.8 μM x-1, 29 μM cel)) was determined as 21.0%. In the data set on MCF-7 cells [3] (+ 0.3 μM 5-fu, CI <1 synergy, >1 antagonism), the “CI, combination with 5-fluorouracil” value was more than 1. The “Combination Effect with gefitinib” value in the data set with MCF-7 cells [3] (+ 70 μM gef) is “synergism”. Also, the “% Cell Growth, combination with gefitinib” value in the data set with MCF-7 cells [3] (+ 70 μM gef (27.5 μM 1h, 10 μM 1g, 10 μM x-1, 29 μM cel)) was found to be 24.3%. Also, the “CI, combination with gefitinib” value with MCF-7 cells [3] (+ 70 μM gef, CI <1 synergy, >1 antagonism) is listed as 0.260 ± 0.033 < 1. Besides, the “CI, combination with gefitinib” value in the data set on MCF-7 cells [3] (+ 70 μM gef, CI <1 synergy, >1 antagonism, listed as X-1) was 0.260. This molecule gave a pIC50 in the data set with MCF-7 cells [4] of 5.00.
